Data taken from patent US8518895B2, “Method for treating hyponatremia employing an SGLT2 inhibitor and composition containing same” (Bristol-Myers Squibb Company, priority 2008, dated 2013).

Key:
[1] = tested on: Healthy Normal Volunteers; experiment: Urinary glucose excretion over 24 hr in healthy normal volunteers after SGLT2 inhibitors; type: in vivo, human
diabetic patients = experiment: 12-week treatment of diabetic patients: urine glucose, HbA1C, urine volume (Table 5)
type 2 diabetic patients = tested on: type 2 diabetic patients
Source text: C-aryl glucoside SGLT2 inhibitors are known to reduce blood glucose levels in diabetic patients, see U.S. Pat. No. 6,774,112, which is incorporated herein by reference in its entirety, but not known to increase urine volume. […] Metformin reduces plasma glucose concentration by non-renal mechanisms and is not known to induce glucosuria. […] On day 1 and day 14, the patients were examined for the levels of glucosuria and changes in urine volumes.

patients with diabetes = conditions: patients with diabetes, 5, 25 or 100 mg, FIG. 2
Source text: The levels of urine glucose of all subjects are shown in the plot and the mean urine glucose is in the darker lines.

[2] = diabetic patients, 2.5-50 mg, after 12 weeks of treatment

Question: `COc1ccc(Cc2sccc2O[C@@H]2O[C@H](CO)[C@@H](O)[C@H](O)[C@H]2O)cc1` [AVE 2268] was tested. Which “Glucose Output over 24 hr” value ([1]; dose 1200 mg) did it give?
Answer: 14 g

Question: And the “Glucose Output over 24 hr” value ([1]; dose 2000 mg)?
Answer: 21 g

Question: Which results are given for `CCOc1ccc(Cc2cc([C@@H]3O[C@H](CO)[C@@H](O)[C@H](O)[C@H]3O)ccc2Cl)cc1` [Dapagliflozin, dapagliflozin]?
Answer: Glucose Output over 24 hr ([1]; dose 5 mg): ~32 g; Glucose Output over 24 hr ([1]; dose 20 mg): ~64 g

Question: `CN(C)C(=N)N=C(N)N` [Metformin, metformin, reference compound] was tested. Which “Urine Output (mL), change from baseline at week 12” value (“Urine Output (mL), change” below) (diabetic patients; Metformin group, N = 56, mean ± standard deviation) did it give?
Answer: -95.84 ± 775.41 mL

Question: What about the HbA1C levels (diabetic patients; patients treated with 1500 mg metformin) of the same compound?
Answer: 0.73%

Question: With `CCOc1ccc(Cc2cc([C@@H]3O[C@H](CO)[C@@H](O)[C@H](O)[C@H]3O)ccc2Cl)cc1` [dapagliflozin PGS] as the compound, how does the “fasting serum glucose (FSG) levels” value (type 2 diabetic patients; two-week period) read?
Answer: Dose-dependent reduction

Question: What about the “postprandial glucose levels in oral glucose tolerance tests (OGTT)” value (type 2 diabetic patients; two-week period) of the same compound?
Answer: reduced

Question: What about the urine volumes (type 2 diabetic patients; two-week period) of the same compound?
Answer: no increase

Question: And the “urinary glucose levels within a 24-hour time period” value (type 2 diabetic patients; versus placebo, FIG. 3)?
Answer: increased

Question: And the “urine glucose excretion compared to placebo” value (patients with diabetes)?
Answer: higher levels of urine glucose excretion

Question: What about the “Urine Output (mL), change” value (diabetic patients; 2.5 mg, n = 59, mean ± standard deviation) of the same compound?
Answer: 106.62 ± 606.88 mL

Question: And the “Urine Output (mL), change” value (diabetic patients; 5 mg, n = 58, mean ± standard deviation)?
Answer: 339.96 ± 551.34 mL

Question: What about the “Urine Output (mL), change” value (diabetic patients; 10 mg, n = 47, mean ± standard deviation) of the same compound?
Answer: 374.49 ± 741.62 mL

Question: What about the “Urine Output (mL), change” value (diabetic patients; 20 mg, n = 59, mean ± standard deviation) of the same compound?
Answer: 374.91 ± 723.13 mL

Question: And the “Urine Output (mL), change” value (diabetic patients; 50 mg, n = 56, mean ± standard deviation)?
Answer: 470.26 ± 797.51 mL

Question: What about the “increase in urine volume” value (diabetic patients; diabetic patients treated for 12 weeks) of the same compound?
Answer: 5-20%

Question: What about the OGT (diabetic patients; [2]) of the same compound?
Answer: improved

Question: And the “glucose excreted in urine every day” value (diabetic patients; [2])?
Answer: 50 to 60 g

Question: And the “reduced HbA1C levels” value (diabetic patients; [2])?
Answer: 0.71-0.9%

Question: And the Side effects (diabetic patients; observed in some individuals, 12 weeks)?
Answer: urinary tract infection, dizziness, or vaginal infection
